Data from the supplement of paper PMC11208160.

Test: recombinant barcode read abundance after kanamycin selection (control-corrected) (log10(CPM+1)); higher = more efficient recombination; sequences stand for … in AGTGCAGAGAAAATCGGCCAGTTTTCTCTGCCTGCAGTCCGCATGCCGT…AGATTTATGCAGCGGACTGCCTTTCTCCCAAAGTGATAAACCGGACAGTATCATGGACCGGTTTTCCCGGTAATCCGTATTTGCAAGGTTGGTTTCACT; site = the 11-nt target
Summary of the method: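 Values are log10(CPM+1) from a pooled E. coli screen of targets paired with IS621 bridge RNA target-binding loops. Recombination efficiency here means counts per million of recombinant-junction barcodes, averaged and control-corrected. Plates were chloramphenicol/ampicillin LB agar for the control and chloramphenicol/ampicillin/kanamycin with 0.1 mM IPTG, two replicates each.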
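Further: IS621 recombinase and bridge RNA in Escherichia coli cells.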

Sequence	recombinant barcode read abundance (log10)
TACCCGACTTGGGTTCTAACCTGTTGCCT (site TACCCGACTAG)	1.41
TACCCGACTTGGGTTCTAACCTGTTGCCT (site TACCGGACTAG)	0.178
TACCCGACTTGGGTTCTAACCTGTTGCCT (site TACCTGACTAG)	0.00741
TACCCGCCTTGGGTTCTAACCTGTTGCCT (site TACCCGCCTAG)	0.838
TACCCGCCTTGGGTTCTAACCTGTTGCCT (site TCCCCGGCTAG)	0.206
TACCCTACTTGGGTTCTAACCTGTTGCAT (site TACACTACTAT)	0.0106
TACCCTACTTGGGTTCTAACCTGTTGCAT (site TACCCTACTAT)	0.654
TACCGCCCTTGGGTTCTAACCTGTTGCGT (site GGAAAGACTGT)	0.166
TACCGCCCTTGGGTTCTAACCTGTTGCGT (site TACCGCCCTAC)	1.95
TACCGGACTTGGGTTCTAACCTGTTGCGT (site TACCGGACTAC)	2.13
TACCGGACTTGGGTTCTAACCTGTTGCGT (site TACCGGCCTAA)	0.0831
TACCGTTCTTGGGTTCTAACCTGTTGCCT (site TAACGTTCTAG)	0
TACCGTTCTTGGGTTCTAACCTGTTGCCT (site TACCGTTCTAG)	0.41
TACGAATCTTGGGTTCTAACCTGTTGCCG (site TACGAATCTAG)	0.235
TACGAATCTTGGGTTCTAACCTGTTGCCG (site TACGAATCTCG)	0.465
TACGAGGCTTGGGTTCTAACCTGTTGCCT (site TACGAGGCTAG)	0.406
TACGAGGCTTGGGTTCTAACCTGTTGCCT (site TACGCGGCTAG)	0.0314
TACGAGGCTTGGGTTCTAACCTGTTGCCT (site TACGGGGCTAG)	0.0616
TACGAGGCTTGGGTTCTAACCTGTTGCCT (site TACGTGGCTAG)	0.0666
TACGCTCCTTGGGTTCTAACCTGTTGCAT (site TACGCTCCTAA)	0.053
TACGCTCCTTGGGTTCTAACCTGTTGCAT (site TACGCTCCTAC)	0.0178
TACGCTCCTTGGGTTCTAACCTGTTGCAT (site TACGCTCCTAG)	0.284

Sequence	recombinant barcode read abundance (log10)
TACGCTCCTTGGGTTCTAACCTGTTGCAT (site TACGCTCCTAT)	0.785
TACGCTCCTTGGGTTCTAACCTGTTGCTT (site TACGCTCCTAA)	0.243
TACGCTCCTTGGGTTCTAACCTGTTGCTT (site TACGCTCCTAC)	0.176
TACGCTCCTTGGGTTCTAACCTGTTGCTT (site TACGCTCCTAG)	0.0812
TACGCTCCTTGGGTTCTAACCTGTTGCTT (site TACGCTCCTAT)	0.017
TACTATACTTGGGTTCTAACCTGTTGCCT (site TACTATACTAG)	0.181
TACTATACTTGGGTTCTAACCTGTTGCCT (site TACTATCCTAG)	0.131
TACTATACTTGGGTTCTAACCTGTTGCCT (site TACTATGCTAG)	0.0468
TACTATACTTGGGTTCTAACCTGTTGCCT (site TACTATTCTAG)	0.149
TACTATCCTTGGGTTCTAACCTGTTGCCT (site TACTATACTAG)	0.0496
TACTATCCTTGGGTTCTAACCTGTTGCCT (site TACTATCCTAG)	0.441
TACTATCCTTGGGTTCTAACCTGTTGCCT (site TACTATGCTAG)	0
TACTATCCTTGGGTTCTAACCTGTTGCCT (site TACTATTCTAG)	0.162
TACTATGCTTGGGTTCTAACCTGTTGCCT (site TACTATACTAG)	0.211
TACTATGCTTGGGTTCTAACCTGTTGCCT (site TACTATCCTAG)	0.163
TACTATGCTTGGGTTCTAACCTGTTGCCT (site TACTATGCTAG)	1.19
TACTATGCTTGGGTTCTAACCTGTTGCCT (site TACTATTCTAG)	0.187
TACTCCGCTTGGGTTCTAACCTGTTGCCT (site GACTCCGCTAG)	0.031
TACTCCGCTTGGGTTCTAACCTGTTGCCT (site TACTCCGCTAG)	1.02
TACTGAGCTTGGGTTCTAACCTGTTGCCT (site CACTGAGCTAG)	0.0308
TACTGAGCTTGGGTTCTAACCTGTTGCCT (site TACTGAGCTAG)	0.52
TAGAACTCTTGGGTTCTAACCTGTTGCCT (site TAGAACTCTAG)	0.914

Sequence	recombinant barcode read abundance (log10)
TAGAACTCTTGGGTTCTAACCTGTTGCCT (site TAGAACTCTCG)	0.0641
TAGAACTCTTGGGTTCTAACCTGTTGCCT (site TAGAACTCTGG)	0.156
TAGAACTCTTGGGTTCTAACCTGTTGCCT (site TAGAACTCTTG)	0.119
TAGAACTCTTGGGTTCTAACCTGTTGCGT (site TAGAACTCTAC)	1.07
TAGAACTCTTGGGTTCTAACCTGTTGCGT (site TAGAGCTCTAC)	0.119
TAGAAGACTTGGGTTCTAACCTGTTGCTC (site TAGAAGACTAA)	0.216
TAGAAGACTTGGGTTCTAACCTGTTGCTC (site TAGAAGACTCA)	0.178
TAGAAGACTTGGGTTCTAACCTGTTGCTC (site TAGAAGACTGA)	1.44
TAGAAGACTTGGGTTCTAACCTGTTGCTC (site TAGAAGACTTA)	0.0266
TAGAAGTCTTGGGTTCTAACCTGTTGCAG (site TAGAAGTCTCT)	1.9
TAGAAGTCTTGGGTTCTAACCTGTTGCAG (site TAGATGTCTCC)	0.0783
TAGAATCCTTGGGTTCTAACCTGTTGCAG (site TAGAATCCTAT)	0.0897
TAGAATCCTTGGGTTCTAACCTGTTGCAG (site TAGAATCCTCT)	0.718
TAGAATCCTTGGGTTCTAACCTGTTGCAG (site TAGAATCCTGT)	0.0644
TAGAATCCTTGGGTTCTAACCTGTTGCAG (site TAGAATCCTTT)	0.072
TAGACATCTTGGGTTCTAACCTGTTGCGT (site CGCTTTACTCG)	0.125
TAGACATCTTGGGTTCTAACCTGTTGCGT (site TAGACATCTAC)	1.65
TAGACTACTTGGGTTCTAACCTGTTGCTA (site TAGACTACTAA)	0.198
TAGACTACTTGGGTTCTAACCTGTTGCTA (site TAGACTACTCA)	0.111
TAGACTACTTGGGTTCTAACCTGTTGCTA (site TAGACTACTGA)	0.0863
TAGACTACTTGGGTTCTAACCTGTTGCTA (site TAGACTACTTA)	0.268
TAGACTCCTTGGGTTCTAACCTGTTGCCA (site ACTTGAGCTAT)	0.336

Sequence	recombinant barcode read abundance (log10)
TAGACTCCTTGGGTTCTAACCTGTTGCCA (site TAGACTCCTTG)	0.182
TAGAGCTCTTGGGTTCTAACCTGTTGCGT (site TAGAACTCTAC)	0.246
TAGAGCTCTTGGGTTCTAACCTGTTGCGT (site TAGAGCTCTAC)	1.25
TAGATGTCTTGGGTTCTAACCTGTTGCGG (site TAGAAGTCTCT)	0.0755
TAGATGTCTTGGGTTCTAACCTGTTGCGG (site TAGATGTCTCC)	2.43
TAGCAATCTTGGGTTCTAACCTGTTGCTA (site GTCGTTACTAG)	0.0938
TAGCAATCTTGGGTTCTAACCTGTTGCTA (site TAGCAATCTTA)	0.0837
TAGCACACTTGGGTTCTAACCTGTTGCGG (site TAGCACACTCC)	1.21
TAGCACACTTGGGTTCTAACCTGTTGCGG (site TAGCCCACTCC)	0.112
TAGCACACTTGGGTTCTAACCTGTTGCGG (site TAGCGCACTCC)	0.291
TAGCACACTTGGGTTCTAACCTGTTGCGG (site TAGCTCACTCC)	0.00842
TAGCATACTTGGGTTCTAACCTGTTGCCA (site TAGCATACTAG)	0.445
TAGCATACTTGGGTTCTAACCTGTTGCCA (site TAGCATACTCG)	0.0183
TAGCATACTTGGGTTCTAACCTGTTGCCA (site TAGCATACTGG)	0.359
TAGCATACTTGGGTTCTAACCTGTTGCCA (site TAGCATACTTG)	0.529
TAGCCATCTTGGGTTCTAACCTGTTGCCT (site TAACCATCTAG)	0.0247
TAGCCATCTTGGGTTCTAACCTGTTGCCT (site TACCCATCTAG)	0.166
TAGCCATCTTGGGTTCTAACCTGTTGCCT (site TAGCCATCTAG)	0.121
TAGCCATCTTGGGTTCTAACCTGTTGCCT (site TATCCATCTAG)	0.0171
TAGCCCTCTTGGGTTCTAACCTGTTGCAA (site ACAGTACCTCA)	0.202
